Measurements from ChEMBL document CHEMBL2429793, “Potent cytotoxic flavonoids from Iranian Securigera securidaca” (Med Chem Res, 2013).
Converted amounts (≈) assume the structure as drawn.

Key:
NIH3T3 = assay: Cytotoxicity against mouse NIH/3T3 cells after 96 hrs by MTT assay; format: cell-based; conditions: NIH3T3, 96 h
T47D = assay: Cytotoxicity against human T47D cells after 48 hrs by MTT assay; format: functional, cell-based
Caco-2 = assay: Cytotoxicity against human Caco2 cells after 48 hrs by MTT assay; format: functional, cell-based; conditions: Caco-2, 48 h
HCT-116 = assay: Cytotoxicity against human HCT116 cells; format: functional, cell-based
Bel-7402 = assay: Cytotoxicity against human Bel7402 cells; format: functional, cell-based
HT-29 = assay: Cytotoxicity against human HT-29 cells after 48 hrs by MTT assay; format: functional, cell-based; conditions: HT-29, 48 h

SMILES | IC50 (NIH3T3) | IC50 (T47D) | IC50 (Caco-2) | IC50 (HCT-116) | IC50 (Bel-7402) | IC50 (HT-29)
O=C(/C=C/c1ccc(O)cc1)c1c(O)cc(O)cc1O[C@@H]1O[C@H](CO)[C@@H](O)[C@H](O)[C@H]1O | > 200 µg/mL | > 200 µg/mL | 8.45 µg/mL (≈ 19.5 µM) | – | – | –
COc1cc(-c2oc3cc(O)cc(O)c3c(=O)c2O[C@@H]2O[C@H](CO)[C@@H](O)[C@H](O)[C@H]2O[C@@H]2O[C@@H](C)[C@H](O)[C@@H](O)[C@H]2O)ccc1O | > 200 µg/mL | 0.003 µg/mL (≈ 0.0048 µM) | 2.47 µg/mL (≈ 3.95 µM) | 72 µM | 74.4 µM | –
O=c1c(-c2ccc(O[C@@H]3O[C@H](CO)[C@@H](O)[C@H](O)[C@H]3O)c(O)c2)coc2cc(O)cc(O)c12 | > 200 µg/mL | 0.169 µg/mL (≈ 0.377 µM) | 0.006 µg/mL (≈ 0.0134 µM) | – | – | 0.009 µg/mL (≈ 0.0201 µM)
CN(Cc1cnc2nc(N)nc(N)c2n1)c1ccc(C(=O)N[C@@H](CCC(=O)O)C(=O)O)cc1 [METHOTREXATE] | 0.24 µg/mL (≈ 0.528 µM) | – | – | – | – | –
